Reference: PubChem BioAssay (NCI)
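Values below derive from 48-hour exposures of cells grown in 96-well plates, with endpoints linearly interpolated between the two concentrations bracketing the appropriate inhibition level. Here, GI50 denotes the concentration required for 50% inhibition of growth. TGI: total growth inhibition.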

Experiments:
Assay in all cases: growth of human tumour cells (NCI), 48 h
[1] = system: 786-0 renal
[2] = system: A498 renal
[3] = system: A549 NSCLC
[4] = system: ACHN renal
[5] = system: BT-549 breast
[6] = system: CAKI-1 renal
[7] = system: CCRF-CEM leukemia
[8] = system: COLO 205 colon
[9] = system: DU-145 prostate
[10] = system: HCC-2998 colon
[11] = system: HCT-116 colon
[12] = system: HCT-15 colon
[13] = system: HL-60(TB) leukemia
[14] = system: HOP-62 NSCLC
[15] = system: HOP-92 NSCLC
[16] = system: HS 578T breast
[17] = system: HT29 colon
[18] = system: IGROV1 ovarian
[19] = system: K-562 leukemia
[20] = system: KM12 colon
[21] = system: LOX IMVI melanoma
[22] = system: M14 melanoma
[23] = system: MALME-3M melanoma
[24] = system: MCF7 breast
[25] = system: MDA-MB-231 breast
[26] = system: MDA-MB-435
[27] = system: MOLT-4 leukemia
[28] = system: NCI-H23 lung
[29] = system: NCI-H460 lung
[30] = system: NCI-H522 lung
[31] = system: NCI/ADR-RES ovarian
[32] = system: OVCAR-3 ovarian
[33] = system: OVCAR-5 ovarian
[34] = system: OVCAR-8 ovarian
[35] = system: PC-3 prostate
[36] = system: RXF 393 renal
[37] = system: SF-268 CNS
[38] = system: SF-539 CNS
[39] = system: SK-MEL-2 melanoma
[40] = system: SK-MEL-28 melanoma
[41] = system: SK-MEL-5 melanoma
[42] = system: SK-OV-3 ovarian
[43] = system: SN12C renal
[44] = system: SNB-19 CNS
[45] = system: SNB-75 CNS
[46] = system: SR leukemia
[47] = system: SW-620 colon
[48] = system: T-47D breast
[49] = system: TK-10 renal
[50] = system: U251 CNS
[51] = system: UACC-257 melanoma
[52] = system: UACC-62 melanoma
[53] = system: UO-31 renal

## Cc1[nH]c(=O)[nH]c(=O)c1CO
[1]
  GI50: > 100 µM
  TGI: > 100 µM
[2]
  GI50: > 100 µM
  TGI: > 100 µM
[3]
  GI50: > 100 µM
  TGI: > 100 µM
[4]
  GI50: > 100 µM
  TGI: > 100 µM
[5]
  GI50: > 100 µM
  TGI: > 100 µM
[6]
  GI50: > 100 µM
  TGI: > 100 µM
[7]
  GI50: > 100 µM
  TGI: > 100 µM
[8]
  GI50: > 100 µM
  TGI: > 100 µM
[9]
  GI50: > 100 µM
  TGI: > 100 µM
[10]
  GI50: > 100 µM
  TGI: > 100 µM
[11]
  GI50: > 100 µM
  TGI: > 100 µM
[12]
  GI50: > 100 µM
  TGI: > 100 µM
[13]
  GI50: > 100 µM
  TGI: > 100 µM
[14]
  GI50: > 100 µM
  TGI: > 100 µM
[15]
  GI50: > 100 µM
  TGI: > 100 µM
[16]
  GI50: > 100 µM
  TGI: > 100 µM
[17]
  GI50: > 100 µM
  TGI: > 100 µM
[18]
  GI50: > 100 µM
  TGI: > 100 µM
[19]
  GI50: > 100 µM
  TGI: > 100 µM
[20]
  GI50: > 100 µM
  TGI: > 100 µM
[21]
  GI50: > 100 µM
  TGI: > 100 µM
[22]
  GI50: > 100 µM
  TGI: > 100 µM
[23]
  GI50: > 100 µM
  TGI: > 100 µM
[24]
  GI50: > 100 µM
  TGI: > 100 µM
[25]
  GI50: > 100 µM
  TGI: > 100 µM
[26]
  GI50: > 100 µM
  TGI: > 100 µM
[27]
  GI50: > 100 µM
  TGI: > 100 µM
[28]
  GI50: > 100 µM
  TGI: > 100 µM
[29]
  GI50: > 100 µM
  TGI: > 100 µM
[30]
  GI50: > 100 µM
  TGI: > 100 µM
[31]
  GI50: > 100 µM
  TGI: > 100 µM
[32]
  GI50: > 100 µM
  TGI: > 100 µM
[33]
  GI50: > 100 µM
  TGI: > 100 µM
[34]
  GI50: > 100 µM
  TGI: > 100 µM
[35]
  GI50: > 100 µM
  TGI: > 100 µM
[36]
  GI50: > 100 µM
  TGI: > 100 µM
[37]
  GI50: > 100 µM
  TGI: > 100 µM
[38]
  GI50: > 100 µM
  TGI: > 100 µM
[39]
  GI50: > 100 µM
  TGI: > 100 µM
[40]
  GI50: > 100 µM
  TGI: > 100 µM
[41]
  GI50: > 100 µM
  TGI: > 100 µM
[42]
  GI50: > 100 µM
  TGI: > 100 µM
[43]
  GI50: > 100 µM
  TGI: > 100 µM
[44]
  GI50: > 100 µM
  TGI: > 100 µM
[45]
  GI50: > 100 µM
  TGI: > 100 µM
[46]
  GI50: > 100 µM
  TGI: > 100 µM
[47]
  GI50: > 100 µM
  TGI: > 100 µM
[48]
  GI50: > 100 µM
  TGI: > 100 µM
[49]
  GI50: > 100 µM
  TGI: > 100 µM
[50]
  GI50: > 100 µM
  TGI: > 100 µM
[51]
  GI50: > 100 µM
  TGI: > 100 µM
[52]
  GI50: > 100 µM
  TGI: > 100 µM
[53]
  GI50: > 100 µM
  TGI: > 100 µM
